Source: US9636377B2, “Compositions and methods for the treatment of retinal degeneration” (UNIVERSITE DE STRASBOURG, priority 2012, dated 2017)
*: point of attachment. Cbz = O=C(OCc1ccccc1)*; CH2F = FC*

What was measured:
[1] = tested on: Bbs12 depleted retinal explants (photoreceptor apoptosis, ONL); assay: TUNEL assay, apoptotic rate of photoreceptors in shRNA-treated retinal explants; format: cell-based, mouse; conditions: for apoptotic rate (proportion of apoptotic photoreceptor nucleus): shBbs12 explants, single treatments 2 mM VPA, 25 μM GBZ, 10 μM INH, 33% without treatment
Procedure: (§1) Wild-type animals were on a C57BL/6 background. The retinal explant culture procedure was carried out as previously described (Reidel et al., 2006). Briefly, 15-day-old mice were sacrificed by decapitation and eyes were removed and incubated in trypsin (catalog #25200-072, Gibco, Invitrogen, Paris, France) for 10 min at 37° C. Digestion was stopped by transferring eyes in DMEM+10% fetal bovine serum (catalog #31885-023 and 10500-064, Gibco) and incubation for 10 min at 4° C. Eyes were dissected in Ame's medium (catalog#15230-097, Gibco) supplemented with 6.5 g/L glucose. First, the sclera was carefully removed, leaving the retinal pigmented epithelium (RPE) attached to the eyeball. Incisions were made at the edge of the cornea to remove the cornea, lens and hyaloid body. Then four radial incisions were made in the retina to obtain a cross shape. Retinas were transferred on a nitrocellulose culture membrane (catalog # PICMORG50, Millipore, Molsheim, France) with RPE side down and cultivated in Neurobasal A medium (catalog #108888-022, Gibco) supplemented with B27 supplement (catalog #17504-044, Gibco), L-glutamine (catalog #35050-061, Gibco) and penicillin/streptomycin (catalog #15240; Gibco). Explants were maintained at 37° C. humidified 5% CO2. Specific gene silencing using lentiviruses carrying shRNA sequences for Bbs12, Perk, Hri or Rhodopsin (Santa Cruz Biotechnology, Tebu Bio, Yvelines, France) were performed by adding 20 μl of viral suspension (1×10^5 infectious units) in the culture medium overnight before whole medium change. The infected explants were then cultured for 3 days with a half medium change on a daily basis. Explants were not maintained longer in culture to avoid unspecific apoptosis in the different retinal layers. […] Drugs were added simultaneously with viral infection to the culture medium.
For immunofluorescence experiments and TUNEL assay retinal explants were fixed directly on membranes with Formalin 10% for 1 hour at 4° C. Sucrose impregnation was then performed using 10%, 20% and 30% sucrose baths, 20 min each. Explants were transferred to OCT (catalog #4583, Tissue-Tek, Sakura, Villeneuve d′Ascq, France) in mold and frozen in liquid nitrogen. 8 μm thin cryosections were mounted on StarFrost slides (catalog # VS1117, Waldemar Knittel Glasbearbeitungs, Braunschweig, Germany).
Sections or cells were washed with PBS 1× and shortly fixated with Formalin 10% solution for 5 minutes and washed three times with PBS 1×. […] The prevalence of apoptotic nuclei was expressed as the ratio of TUNEL-positive nuclei and DAPI-stained nuclei in three different areas of the ONL per experiment. […]

[2] = tested on: Bip, Chop10 and Caspase12 mRNA; assay: mRNA expression of ER stress genes in retinal explants (quantitative PCR); format: cell-based, mouse
Procedure: as §1
Total RNA was extracted with Trizol (catalog #15596-018, Invitrogen). […] was DNAse treated using TURBO DNA-free Kit (catalog # AM1907, Applied Biosystems, Villebon-sur-Yvette, France) and then reverse transcribed using the iScript cDNA synthesis kit (catalog #170-8891, BioRad, Marne-la-coquette, France). Primers (listed in supplementary methods) were purchased from Qiagen, Courtaboeuf, France. Quantitative PCR were performed using SYBR Green PCR Mix (catalog #4367659, Applied Biosystems) on a BioRad CFX96 system. mRNA expressions were expressed as relative to Gapdh RNA content, using BioRad CFX manager software. For endoplasmic reticulum stress arrays, Custom TaqMan Array 96 was purchased for Applied Biosystems; all tested genes are listed in supplementary methods.

peIF2α, CHOP10 and BiP = assay: Western blot of UPR proteins in retinal explants; format: cell-based, mouse; conditions: shRNA-treated retinal explants
Procedure: as §1
Proteins were obtained by lysis in RIPA buffer (150 mM NaCl, 50 mM TrisHCl pH 8, 0.1% Tween20, catalog # P7653, T3253, 93773, Sigma-Aldrich) supplemented with Protease Inhibitors Complete Mini EDTA-free (catalog #11836 170001, Roche, Boullogne-Billancourt, France), 1 mM NaVO4 and 25 mM NaF (catalog # S6508 and S7920, Sigma-Aldrich). After retina dissociation using dounce homogenizer, samples were sonicated and protein concentration was determined using Bradford reagent (catalog #500-0006, BioRad). For Western blotting, 80 μg of whole protein extracts were loaded per lane and Ponceau S staining was used as loading control for signal quantification. Antibody binding was visualized using SuperSignal West Femto Maximum Sensitivity Substrate (catalog #34095, ThermoFisher) on a Versadoc apparitus, BioRad. Signal quantification was assed using QuantityOne software from BioRad.

Bbs12−/− mouse retina [3] = assay: Scotopic electroretinogram of treated Bbs12−/− mice; format: in vivo; conditions: 4 weeks of age; for scotopic ERG recording: systemic VPA 5 mg/mL, systemic GBZ 50 μM, or GIV (eye drops GBZ 7.5 μM + INH 500 μM, systemic VPA)
Procedure: (§2) The Bbs12^−/− mice were generated as previously described. Bbs12^−/− mice were obtained by crossing heterozygote animals. Mice were housed in humidity and temperature controlled rooms on a 12-hour light/12-hour dark cycle with food ad libitum and water. For anti-apoptotic treatments, animals were treated with eye drops from 2 to 4 weeks of age once a day; the eye drops contain GBZ 7.5 μM and Caspase Inhibitor 500 μM for the left eye and contain 5% DMSO for the right eye. […] Eye drop treatment was achieved from 2 to 4 weeks of age and systemic treatments were achieved from 3 to 4 weeks of age. At 4 weeks of age, electrophysiological analyses were performed and the retinas were harvested for molecular analysis.
Mice were dark adapted for 12 hours before recording. Those experiments were performed under dim red light. The mice were anesthetized with the same anesthesia mix described in the section above. The pupils were dilated with eye drops of atropine 0.3% (catalog # Atropine Alcon 0.3%, Alcon, Rueil-Malmaison, France). Animals were placed on a controlled heating pad and maintained at 37° C. during the procedure. The reference electrode was placed under the head skin and the background electrode was inserted in the tail of the animal. The measuring electrode was placed on the cornea, to optimize contact between the cornea and the gold electrode, and a drop of methylcellulose gel (catalog # Ocry-gel, TVM Laboratories, Lempdes, France) was added. Flashes were delivered though a Ganzfeld equipped with light-emitting diodes with maximum output of 318 cd/m^2 (Siem Biomédicale, Nimes, France). For the scotopic ERG, the flash duration varied from 3 to 5 ms with final flash output ranging from 0.001 to 1 cd*s/m^2. Responses were amplified, filtered (1-300-Hz band pass), and digitized (Visiosystem; Siem Biomédicale). The a and b waves were measured by using a 1-75-Hz band pass to filter oscillatory potentials.

Bbs12−/− mouse retina [4] = assay: Retinal histology (ONL thickness, cilia) of treated Bbs12−/− mice; format: in vivo; conditions: for ONL layer thickness: 4 weeks of age, 37 μm for untreated retinas
Procedure: The Bbs12^−/− mice were generated as previously described. Bbs12^−/− mice were obtained by crossing heterozygote animals. Mice were housed in humidity and temperature controlled rooms on a 12-hour light/12-hour dark cycle with food ad libitum and water. For anti-apoptotic treatments, animals were treated with eye drops from 2 to 4 weeks of age once a day; the eye drops contain GBZ 7.5 μM and Caspase Inhibitor 500 μM for the left eye and contain 5% DMSO for the right eye. […] Eye drop treatment was achieved from 2 to 4 weeks of age and systemic treatments were achieved from 3 to 4 weeks of age. At 4 weeks of age, electrophysiological analyses were performed and the retinas were harvested for molecular analysis. Sections or cells were washed with PBS 1× and shortly fixated with Formalin 10% solution for 5 minutes and washed three times with PBS 1×. The sections were then pre-incubated with Teng-T (10 mM TrisHCl (pH=7.6), 5 mM EDTA (catalog # E5768, Sigma-Aldrich), 150 mM NaCl, 0.25% gelatin (catalog # G9391, Sigma-Aldrich), 0.05% Tween-20)/10% normal goat serum (catalog #PCN5000, Gibco) for 30 min, followed by an overnight incubation with the primary antibody diluted in Teng-T/10% NGS at 4° C. Slides were then washed with PBS 1× and incubated with the indicated secondary antibody in Teng-T/10% NGS for 1 hour at room temperature. Slides were washed in PBS 1× and nuclear staining was performed with DAPI (catalog # D1306, Invitrogen). Slides were mounted with Immumount (catalog #9990402, ThermoFisher). TUNEL assays were performed using In Situ Cell Death Detection Kit (catalog #11684795910, Roche) according to suppliers' protocol. The prevalence of apoptotic nuclei was expressed as the ratio of TUNEL-positive nuclei and DAPI-stained nuclei in three different areas of the ONL per experiment. All results shown are representative of at least 3 separate experiments.

[5] = tested on: eIF2α phosphorylation and BiP; assay: Western blot of phosphorylated eIF2α and BiP in retinas of treated Bbs12−/− mice; format: in vivo, mouse
Procedure: as §2, with “Bbs12^-/-” for “Bbs12^−/−”, “analysis. […] After retina dissociation using dounce homogenizer, samples were sonicated and protein concentration was determined using Bradford reagent (catalog #500-0006, BioRad). For Western blotting, 80 μg of whole protein extracts were loaded per lane and Ponceau S staining was used as loading control for signal quantification. […] Signal quantification was assed using QuantityOne software from BioRad.” for “analysis.”

rat retina = conditions: ischemia-reperfusion injury, systemic administration; cited from earlier work
RP patients = RP patients treated for 2 or 4 months; cited from earlier work
Bbs1M390R/M390R mice = conditions: cited from earlier work
[6] = control conditions (shCtl explants)

| Compound | apoptotic rate (proportion of apoptotic photoreceptor nucleus) [1] | Bip mRNA expression ([2]; after Bbs12 depletion) | Caspase12 mRNA expression ([2]; after Bbs12 depletion) | Chop10 mRNA expression ([2]; after Bbs12 depletion) | CHOP10 protein content (peIF2α, CHOP10 and BiP) | eIF2α phosphorylation (peIF2α), protein level (peIF2α, CHOP10 and BiP) | a wave amplitude, scotopic ERG (Bbs12−/− mouse retina [3]) | b wave amplitude, scotopic ERG (Bbs12−/− mouse retina [3]) | scotopic ERG recording (Bbs12−/− mouse retina [3]) | protective effect on photoreceptors, overall in vivo (electrophysiological and histological analysis) (Bbs12−/− mouse retina [4]) | ONL layer thickness (Bbs12−/− mouse retina [4]) | other results |
| --- | --- | --- | --- | --- | --- | --- | --- | --- | --- | --- | --- | --- |
| CCCC(CCC)C(=O)O [VPA, valproic acid] | 17% | lower | lower | lower | decreased | decreased | significantly increased | higher | clear amelioration | efficient to reduce photoreceptor apoptosis | 44 μm | apoptotic rate ([1]; shCtl explants, 2 mM VPA, TUNEL-positive nuclei/DAPI in ONL): 13%; Bip mRNA expression [2, 6]: twofold increase; Caspase12 mRNA expression [2, 6]: not significantly changed; Chop10 mRNA expression [2, 6]: not significantly changed; BiP protein content (peIF2α, CHOP10 and BiP): increased; BiP protein level [5]: increased; BiP expression (rat retina): increased; caspase-12 activation (rat retina): reduced; visual field (RP patients): increase of visual field in 5 to 7 patients |
| N=C(N)N/N=C/c1c(Cl)cccc1Cl [GBZ, guanabenz] | 12% | decreased | decreased | decreased | increase | maintained in a phosphorylated status | significantly increased | significantly increased | clear amelioration | efficient to reduce photoreceptor apoptosis | 45 μm | phosphorylated status of eIF2α [5]: increased |
| Z-Ala-Thr-Ala-Asp(O-methyl)-fluoromethyl-ketone (Cbz-ATAD(OMe)-CH2F; SMILES COC(=O)C[C@H](NC(=O)[C@H](C)NC(=O)[C@@H](NC(=O)[C@H](C)NC(=O)OCc1ccccc1)[C@@H](C)O)C(=O)CF) [INH, Promokine] | 23% | – | – | – | decrease | decrease | – | – | – | – | – | – |
| C[C@H](CCC(=O)NCCS(=O)(=O)O)[C@H]1CC[C@H]2[C@@H]3[C@@H](O)C[C@@H]4C[C@H](O)CC[C@]4(C)[C@H]3CC[C@]12C [TUDCA, tauroursodeoxycholic acid] | – | – | – | – | – | – | – | – | – | – | – | retinal thickness (Bbs1M390R/M390R mice): induced retinal thickening |
